Patent publication US8802597B2, “Herbicidal pyrimidines” (E I du Pont de Nemours and Company, priority 2003, dated 2014)

Legend:
Assay in all cases: Test E flooded paddy water application
Type in all cases: in vivo
[1] = test system: transplanted rice seedlings (Oryza sativa cv. ‘Japonica-M202’); conditions: Flood, 21 days, scale 0 to 100 (0 no effect, 100 complete control); for Plant response rating, Rice, Transplanted: 16 g ai/ha
Outline: (§1)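 Greenhouse pots of Tama silt loam with weeds and rice at 2.0–2.5-leaf stage, flooded to 3 cm; compounds applied directly into paddy water, depth maintained. Visual rating versus untreated controls after 21 days, 0 (no effect) to 100 (complete control); 29.5/26.7 °C, 16-h photoperiod.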

[2] = test system: bearded (brdd.) sprangletop (Leptochloa fusca ssp. fascicularis); conditions: Flood, 21 days, scale 0 to 100 (0 no effect, 100 complete control); for Plant response rating, Sprangletop, Brdd.: 16 g ai/ha
Outline: as §1

[3] = test system: junglerice (Echinochloa colona); conditions: Flood, 21 days, scale 0 to 100 (0 no effect, 100 complete control); for Plant response rating, Junglerice: 16 g ai/ha
Outline: as §1

[4] = test system: ducksalad (Heteranthera limosa); conditions: Flood, 21 days, scale 0 to 100 (0 no effect, 100 complete control); for Plant response rating, Ducksalad: 16 g ai/ha
Outline: as §1

[5] = test system: water seeded rice seedlings (Oryza sativa cv. ‘Japonica-M202’); conditions: Flood, 21 days, scale 0 to 100 (0 no effect, 100 complete control); for Plant response rating, Rice, Water Seeded: 16 g ai/ha
Outline: as §1

[6] = test system: late watergrass (Echinochloa oryzicola); conditions: Flood, 21 days, scale 0 to 100 (0 no effect, 100 complete control); for Plant response rating, Watergrass, Late: 16 g ai/ha
Outline: as §1

[7] = test system: smallflower umbrella sedge (Cyperus difformis); conditions: Flood, 21 days, scale 0 to 100 (0 no effect, 100 complete control); for Plant response rating, Sedge, Umbrella: 16 g ai/ha
Outline: as §1

[8] = test system: early watergrass (Echinochloa oryzoides); conditions: Flood, 21 days, scale 0 to 100 (0 no effect, 100 complete control); for Plant response rating, Watergrass, Early: 16 g ai/ha
Outline: as §1

[9] = test system: purple redstem (Ammannia coccinea); conditions: Flood, 21 days, scale 0 to 100 (0 no effect, 100 complete control); for Plant response rating, Redstem: 16 g ai/ha
Outline: as §1

[10] = test system: rice flatsedge (Cyperus iria); conditions: Flood, 21 days, scale 0 to 100 (0 no effect, 100 complete control); for Plant response rating, Flatsedge, Rice: 16 g ai/ha
Outline: as §1

[11] = test system: barnyardgrass (Echinochloa crus-galli); conditions: Flood, 21 days, scale 0 to 100 (0 no effect, 100 complete control); for Plant response rating, Barnyardgrass: 16 g ai/ha
Outline: as §1

CCOC(=O)c1nc(-c2ccc(Br)cc2)nc(N)c1Cl [Compound 94, ethyl 6-amino-2-(4-bromophenyl)-5-chloro-4-pyrimidinecarboxylate]
Rice, Transplanted plant response rating ([1]; 32 g ai/ha): 0
Rice, Transplanted plant response rating ([1]; 64 g ai/ha): 10
Rice, Transplanted plant response rating ([1]; 125 g ai/ha): 10
Rice, Transplanted plant response rating ([1]; 250 g ai/ha): 20
Plant response rating, Rice, Transplanted [1]: 0
Sprangletop, Brdd. plant response rating ([2]; 32 g ai/ha): 0
Sprangletop, Brdd. plant response rating ([2]; 64 g ai/ha): 0
Sprangletop, Brdd. plant response rating ([2]; 125 g ai/ha): 20
Sprangletop, Brdd. plant response rating ([2]; 250 g ai/ha): 40
Plant response rating, Sprangletop, Brdd. [2]: 0
Junglerice plant response rating ([3]; 32 g ai/ha): 0
Junglerice plant response rating ([3]; 64 g ai/ha): 0
Junglerice plant response rating ([3]; 125 g ai/ha): 0
Junglerice plant response rating ([3]; 250 g ai/ha): 0
Plant response rating, Junglerice [3]: 0
Ducksalad plant response rating ([4]; 32 g ai/ha): 100
Ducksalad plant response rating ([4]; 64 g ai/ha): 100
Ducksalad plant response rating ([4]; 125 g ai/ha): 100
Ducksalad plant response rating ([4]; 250 g ai/ha): 100
Plant response rating, Ducksalad [4]: 100
Rice, Water Seeded plant response rating ([5]; 32 g ai/ha): 0
Rice, Water Seeded plant response rating ([5]; 125 g ai/ha): 10
Rice, Water Seeded plant response rating ([5]; 250 g ai/ha): 10
Plant response rating, Rice, Water Seeded [5]: 0
Watergrass, Late plant response rating ([6]; 32 g ai/ha): 0
Watergrass, Late plant response rating ([6]; 64 g ai/ha): 0
Watergrass, Late plant response rating ([6]; 125 g ai/ha): 0
Watergrass, Late plant response rating ([6]; 250 g ai/ha): 0
Plant response rating, Watergrass, Late [6]: 0
Sedge, Umbrella plant response rating ([7]; 32 g ai/ha): 100
Sedge, Umbrella plant response rating ([7]; 64 g ai/ha): 100
Sedge, Umbrella plant response rating ([7]; 125 g ai/ha): 100
Sedge, Umbrella plant response rating ([7]; 250 g ai/ha): 100
Plant response rating, Sedge, Umbrella [7]: 100
Watergrass, Early plant response rating ([8]; 32 g ai/ha): 0
Watergrass, Early plant response rating ([8]; 64 g ai/ha): 0
Watergrass, Early plant response rating ([8]; 125 g ai/ha): 0
Watergrass, Early plant response rating ([8]; 250 g ai/ha): 0
Plant response rating, Watergrass, Early [8]: 0
Redstem plant response rating ([9]; 32 g ai/ha): 65
Redstem plant response rating ([9]; 64 g ai/ha): 75
Redstem plant response rating ([9]; 125 g ai/ha): 100
Redstem plant response rating ([9]; 250 g ai/ha): 100
Plant response rating, Redstem [9]: 0
Flatsedge, Rice plant response rating ([10]; 32 g ai/ha): 100
Flatsedge, Rice plant response rating ([10]; 64 g ai/ha): 100
Flatsedge, Rice plant response rating ([10]; 125 g ai/ha): 100
Flatsedge, Rice plant response rating ([10]; 250 g ai/ha): 100
Plant response rating, Flatsedge, Rice [10]: 100
Barnyardgrass plant response rating ([11]; 32 g ai/ha): 0
Barnyardgrass plant response rating ([11]; 64 g ai/ha): 0
Barnyardgrass plant response rating ([11]; 125 g ai/ha): 0
Barnyardgrass plant response rating ([11]; 250 g ai/ha): 0
Plant response rating, Barnyardgrass [11]: 0

COC(=O)c1nc(-c2ccc(Br)cc2)nc(N)c1Cl [Compound 96, methyl 6-amino-2-(4-bromophenyl)-5-chloro-4-pyrimidinecarboxylate]
Rice, Transplanted plant response rating ([1]; 32 g ai/ha): 0
Rice, Transplanted plant response rating ([1]; 64 g ai/ha): 0
Rice, Transplanted plant response rating ([1]; 125 g ai/ha): 10
Rice, Transplanted plant response rating ([1]; 250 g ai/ha): 20
Plant response rating, Rice, Transplanted [1]: 0
Sprangletop, Brdd. plant response rating ([2]; 32 g ai/ha): 0
Sprangletop, Brdd. plant response rating ([2]; 64 g ai/ha): 0
Sprangletop, Brdd. plant response rating ([2]; 125 g ai/ha): 0
Sprangletop, Brdd. plant response rating ([2]; 250 g ai/ha): 0
Plant response rating, Sprangletop, Brdd. [2]: 0
Junglerice plant response rating ([3]; 32 g ai/ha): 0
Junglerice plant response rating ([3]; 64 g ai/ha): 0
Junglerice plant response rating ([3]; 125 g ai/ha): 0
Junglerice plant response rating ([3]; 250 g ai/ha): 0
Plant response rating, Junglerice [3]: 0
Ducksalad plant response rating ([4]; 32 g ai/ha): 100
Ducksalad plant response rating ([4]; 64 g ai/ha): 100
Ducksalad plant response rating ([4]; 125 g ai/ha): 100
Ducksalad plant response rating ([4]; 250 g ai/ha): 100
Plant response rating, Ducksalad [4]: 100
Rice, Water Seeded plant response rating ([5]; 32 g ai/ha): 0
Rice, Water Seeded plant response rating ([5]; 64 g ai/ha): 0
Rice, Water Seeded plant response rating ([5]; 125 g ai/ha): 10
Rice, Water Seeded plant response rating ([5]; 250 g ai/ha): 10
Plant response rating, Rice, Water Seeded [5]: 0
Watergrass, Late plant response rating ([6]; 32 g ai/ha): 0
Watergrass, Late plant response rating ([6]; 64 g ai/ha): 0
Watergrass, Late plant response rating ([6]; 125 g ai/ha): 0
Watergrass, Late plant response rating ([6]; 250 g ai/ha): 0
Plant response rating, Watergrass, Late [6]: 0
Sedge, Umbrella plant response rating ([7]; 32 g ai/ha): 100
Sedge, Umbrella plant response rating ([7]; 64 g ai/ha): 100
Sedge, Umbrella plant response rating ([7]; 125 g ai/ha): 100
Sedge, Umbrella plant response rating ([7]; 250 g ai/ha): 100
Plant response rating, Sedge, Umbrella [7]: 100
Watergrass, Early plant response rating ([8]; 32 g ai/ha): 0
Watergrass, Early plant response rating ([8]; 64 g ai/ha): 0
Watergrass, Early plant response rating ([8]; 125 g ai/ha): 0
Watergrass, Early plant response rating ([8]; 250 g ai/ha): 0
Plant response rating, Watergrass, Early [8]: 0
Redstem plant response rating ([9]; 32 g ai/ha): 85
Redstem plant response rating ([9]; 64 g ai/ha): 90
Redstem plant response rating ([9]; 125 g ai/ha): 100
Redstem plant response rating ([9]; 250 g ai/ha): 100
Plant response rating, Redstem [9]: 0
Flatsedge, Rice plant response rating ([10]; 32 g ai/ha): 100
Flatsedge, Rice plant response rating ([10]; 64 g ai/ha): 100
Flatsedge, Rice plant response rating ([10]; 125 g ai/ha): 100
Flatsedge, Rice plant response rating ([10]; 250 g ai/ha): 100
Plant response rating, Flatsedge, Rice [10]: 100
Barnyardgrass plant response rating ([11]; 32 g ai/ha): 0
Barnyardgrass plant response rating ([11]; 64 g ai/ha): 0
Barnyardgrass plant response rating ([11]; 125 g ai/ha): 0
Barnyardgrass plant response rating ([11]; 250 g ai/ha): 0
Plant response rating, Barnyardgrass [11]: 0

Nc1nc(-c2ccc(Cl)cc2)nc(C(=O)[O-])c1Cl.[Na+] [Compound 117]
Rice, Transplanted plant response rating ([1]; 32 g ai/ha): 0
Rice, Transplanted plant response rating ([1]; 64 g ai/ha): 0
Rice, Transplanted plant response rating ([1]; 125 g ai/ha): 0
Rice, Transplanted plant response rating ([1]; 250 g ai/ha): 20
Plant response rating, Rice, Transplanted [1]: 0
Sprangletop, Brdd. plant response rating ([2]; 32 g ai/ha): 0
Sprangletop, Brdd. plant response rating ([2]; 64 g ai/ha): 0
Sprangletop, Brdd. plant response rating ([2]; 125 g ai/ha): 0
Sprangletop, Brdd. plant response rating ([2]; 250 g ai/ha): 0
Plant response rating, Sprangletop, Brdd. [2]: 0
Junglerice plant response rating ([3]; 32 g ai/ha): 0
Junglerice plant response rating ([3]; 64 g ai/ha): 0
Junglerice plant response rating ([3]; 125 g ai/ha): 0
Junglerice plant response rating ([3]; 250 g ai/ha): 0
Plant response rating, Junglerice [3]: 0
Ducksalad plant response rating ([4]; 32 g ai/ha): 100
Ducksalad plant response rating ([4]; 64 g ai/ha): 100
Ducksalad plant response rating ([4]; 125 g ai/ha): 100
Ducksalad plant response rating ([4]; 250 g ai/ha): 100
Plant response rating, Ducksalad [4]: 100
Rice, Water Seeded plant response rating ([5]; 32 g ai/ha): 0
Rice, Water Seeded plant response rating ([5]; 64 g ai/ha): 0
Rice, Water Seeded plant response rating ([5]; 125 g ai/ha): 0
Rice, Water Seeded plant response rating ([5]; 250 g ai/ha): 0
Plant response rating, Rice, Water Seeded [5]: 0
Watergrass, Late plant response rating ([6]; 32 g ai/ha): 0
Watergrass, Late plant response rating ([6]; 64 g ai/ha): 0
Watergrass, Late plant response rating ([6]; 125 g ai/ha): 0
Watergrass, Late plant response rating ([6]; 250 g ai/ha): 0
Plant response rating, Watergrass, Late [6]: 0
Sedge, Umbrella plant response rating ([7]; 32 g ai/ha): 85
Sedge, Umbrella plant response rating ([7]; 64 g ai/ha): 100
Sedge, Umbrella plant response rating ([7]; 125 g ai/ha): 100
Sedge, Umbrella plant response rating ([7]; 250 g ai/ha): 100
Plant response rating, Sedge, Umbrella [7]: 60
Watergrass, Early plant response rating ([8]; 32 g ai/ha): 0
Watergrass, Early plant response rating ([8]; 64 g ai/ha): 0
Watergrass, Early plant response rating ([8]; 125 g ai/ha): 0
Watergrass, Early plant response rating ([8]; 250 g ai/ha): 0
Plant response rating, Watergrass, Early [8]: 0
Redstem plant response rating ([9]; 32 g ai/ha): 0
Redstem plant response rating ([9]; 64 g ai/ha): 0
Redstem plant response rating ([9]; 125 g ai/ha): 0
Redstem plant response rating ([9]; 250 g ai/ha): 30
Plant response rating, Redstem [9]: 0
Flatsedge, Rice plant response rating ([10]; 32 g ai/ha): 100
Flatsedge, Rice plant response rating ([10]; 64 g ai/ha): 100
Flatsedge, Rice plant response rating ([10]; 125 g ai/ha): 100
Flatsedge, Rice plant response rating ([10]; 250 g ai/ha): 100
Plant response rating, Flatsedge, Rice [10]: 100
Barnyardgrass plant response rating ([11]; 32 g ai/ha): 0
Barnyardgrass plant response rating ([11]; 64 g ai/ha): 0
Barnyardgrass plant response rating ([11]; 125 g ai/ha): 0
Barnyardgrass plant response rating ([11]; 250 g ai/ha): 0
Plant response rating, Barnyardgrass [11]: 0
